For orientation: IC50 means the midpoint of a concentration-inhibition curve.

Structures are written as SMILES. Counter-ions that a name gives are not always drawn.

For 27 compounds, IC50 results are on record in patent US8026257B2 (Bristol-Myers Squibb Company, priority 2007, dated 2011).

For one test, the target named is hSERT (Homo sapiens, UniProt P31645). Briefly: SERT radioligand binding assay ([125I]RTI-55, HEK-hSERT membranes). The note with it: HEK-293 hSERT membranes, 260 pM [125I]RTI-55, 1 hour at room temperature; read-out: SERT IC50. Summed up:
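IC50 values derive from four-parameter fits of triplicate percent-inhibition curves, with DMSO as 0% and fluoxetine as 100%. Binding used [125I]RTI-55 at its Kd (520 pM 2× solution) and HEK-hSERT membranes (15 ug/ml 2×) in Tris/NaCl/KCl, pH 7.5, 1 hour, room temperature. Filter-bound radioactivity was counted.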

For a further test, the target named is T1, NK-1 (Homo sapiens, UniProt P25103).
T1 construct: 30 ul/well of a 2×U373 membrane preparation
T1 sequence (P25103 whole entry): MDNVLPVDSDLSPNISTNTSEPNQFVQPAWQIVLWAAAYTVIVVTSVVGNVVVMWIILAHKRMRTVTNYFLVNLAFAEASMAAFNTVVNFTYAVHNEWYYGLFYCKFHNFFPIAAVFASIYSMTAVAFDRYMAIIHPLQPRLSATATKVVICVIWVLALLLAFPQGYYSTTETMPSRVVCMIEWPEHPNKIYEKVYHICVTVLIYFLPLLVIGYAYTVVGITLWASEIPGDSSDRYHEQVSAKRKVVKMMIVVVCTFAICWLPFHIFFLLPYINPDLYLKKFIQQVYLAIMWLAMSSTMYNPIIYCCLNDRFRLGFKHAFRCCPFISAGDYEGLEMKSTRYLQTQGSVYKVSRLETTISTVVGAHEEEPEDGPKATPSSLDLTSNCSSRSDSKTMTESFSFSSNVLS
The test is described as follows: NK1 radioligand binding assay ([125I]Substance P, U373 membranes). The following applies: U373 cell membranes, 200 pM [125I]Substance P, 1 hour at room temperature. In outline:
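Displacement of Kd-level [125I]Substance P (400 pM 2× stock) from U373 membranes in pH 7.5 Tris-Cl/MgCl2 buffer with protease inhibitors, 1 h, room temperature. Filtration onto GF/B, then scintillation counting. Percent inhibition, referenced to DMSO and L-733,060 wells, fitted by four-parameter equation to give IC50; triplicate plates.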

Chain of hSERT (P31645 whole entry): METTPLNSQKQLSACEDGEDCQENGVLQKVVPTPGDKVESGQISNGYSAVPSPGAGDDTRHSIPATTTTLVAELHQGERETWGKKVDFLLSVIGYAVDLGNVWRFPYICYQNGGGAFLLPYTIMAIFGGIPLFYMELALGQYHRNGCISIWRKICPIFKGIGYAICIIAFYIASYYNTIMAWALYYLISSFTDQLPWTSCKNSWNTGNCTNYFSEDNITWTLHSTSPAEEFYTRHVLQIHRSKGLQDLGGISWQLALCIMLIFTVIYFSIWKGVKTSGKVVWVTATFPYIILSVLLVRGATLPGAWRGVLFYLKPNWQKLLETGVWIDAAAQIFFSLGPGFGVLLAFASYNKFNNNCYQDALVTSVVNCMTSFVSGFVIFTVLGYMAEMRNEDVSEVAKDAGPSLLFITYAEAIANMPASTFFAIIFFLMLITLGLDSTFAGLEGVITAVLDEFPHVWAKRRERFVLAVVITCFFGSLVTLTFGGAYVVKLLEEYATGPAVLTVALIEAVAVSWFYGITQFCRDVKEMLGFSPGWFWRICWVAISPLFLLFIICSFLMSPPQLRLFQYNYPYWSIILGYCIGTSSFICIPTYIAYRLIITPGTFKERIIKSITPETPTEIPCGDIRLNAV

As for `CN1CCC(COCc2cc(C(F)(F)F)cc3cc[nH]c23)(c2ccccc2)CC1` [Example 66, 7-(((1-Methyl-4-phenylpiperidin-4-yl)methoxy)methyl)-5-(trifluoromethyl)-1H-indole], the half-inhibitory concentration (IC50) on hSERT and on NK-1 was 0.01 to 100 nM throughout.
As to `CN1CCC(COCc2cc(C(F)(F)F)cc3ccn(C)c23)(c2ccccc2)CC1` [Example 67, 1-Methyl-7-(((1-methyl-4-phenylpiperidin-4-yl)methoxy)methyl)-5-(trifluoromethyl)-1H-indole], the concentration for half-maximal inhibition (IC50) at hSERT and on NK-1 was 0.01 to 100 nM in each case.
Consider `CN1CCC(COCc2cc(C(F)(F)F)cc3cc[nH]c23)(c2ccc(F)cc2)CC1` [Example 68, 7-(((1-Methyl-4-(4-fluorophenyl)piperidin-4-yl)methoxy)methyl)-5-(trifluoromethyl)-1H-indole], for which the IC50 on hSERT and at NK-1 was 0.01 to 100 nM each time.
Regarding `CN1CCC(COCc2cc(C(F)(F)F)cc3ccn(C)c23)(c2ccc(F)cc2)CC1` [Example 69, 1-Methyl-7-(((1-methyl-4-(4-fluorophenyl)piperidin-4-yl)methoxy)methyl)-5-(trifluoromethyl)-1H-indole], the half-inhibitory concentration (IC50) on hSERT and at NK-1 was 0.01 to 100 nM throughout.
For `CN1CCC(COCc2cc(C(F)(F)F)cc3[nH]ccc23)(c2ccccc2)CC1` [Example 76, 4-(((1-Methyl-4-phenylpiperidin-4-yl)methoxy)methyl)-6-(trifluoromethyl)-1H-indole 2,2,2-trifluoroacetate], the IC50 at hSERT and on NK-1 was 0.01 to 100 nM in each case.
For the compound `CN1CCC(COCc2cc(C(F)(F)F)cc3c2ccn3C)(c2ccccc2)CC1` [Example 77, 1-Methyl-4-(((1-methyl-4-phenylpiperidin-4-yl)methoxy)methyl)-6-(trifluoromethyl)-1H-indole 2,2,2-trifluoroacetate], the IC50 at hSERT and on NK-1 was 0.01 to 100 nM in each case.
Consider `CN1CCC(COCc2cc(C(F)(F)F)cc3nnn(C)c23)(c2ccc(F)cc2)CC1` [Example 78, 7-(((4-(4-Fluorophenyl)-1-methylpiperidin-4-yl)methoxy)methyl)-1-methyl-5-(trifluoromethyl)-1H-benzo[d][1,2,3]triazole], for which the values for the concentration for half-maximal inhibition (IC50) at hSERT and at NK-1 were 0.01 to 100 nM and 100 to 300 nM, respectively.
Turning to `CN1CCC(COCc2cc(C(F)(F)F)cc3nn(C)nc23)(c2ccc(F)cc2)CC1` [Example 79, 4-(((4-(4-Fluorophenyl)-1-methylpiperidin-4-yl)methoxy)methyl)-2-methyl-6-(trifluoromethyl)-2H-benzo[d][1,2,3]triazole], the concentration for half-maximal inhibition (IC50) on hSERT and at NK-1 was 0.01 to 100 nM throughout.
With `CN1CCC(COCc2cc(C(F)(F)F)cc3c2nnn3C)(c2ccc(F)cc2)CC1` [Example 80, 4-(((4-(4-Fluorophenyl)-1-methylpiperidin-4-yl)methoxy)methyl)-1-methyl-6-(trifluoromethyl)-1H-benzo[d][1,2,3]triazole], the half-maximal inhibitory concentration (IC50) on hSERT lay within 0.01 to 100 nM; on NK-1, 100 to 300 nM.
Consider `CN1CCC(COCc2nc3cc(-c4ccc(C#N)cc4)ccc3n2CC2CC2)(c2ccccc2)CC1` [Example 81, 4-(1-(Cyclopropylmethyl)-2-(((1-methyl-4-phenylpiperidin-4-yl)methoxy)methyl)-1H-benzo[d]imidazol-5-yl)benzonitrile], for which the concentration for half-maximal inhibition (IC50) at hSERT is 0.01 to 100 nM; on NK-1, over 300 nM.
The like results for `CN1CCC(COCc2nc3cc(Br)ccc3n2CC2CC2)(c2ccccc2)CC1` [Example 82, 5-Bromo-1-(cyclopropylmethyl)-2-(((1-methyl-4-phenylpiperidin-4-yl)methoxy)methyl)-1H-benzo[d]imidazole] were, in that order, 0.01 to 100 nM and over 300 nM.
In the same order, the values of `CN1CCC(COCc2nc3ccc(Br)cc3n2CC2CC2)(c2ccccc2)CC1` [Example 83, 6-Bromo-1-(cyclopropylmethyl)-2-(((1-methyl-4-phenylpiperidin-4-yl)methoxy)methyl)-1H-benzo[d]imidazole] are 0.01 to 100 nM and over 300 nM.
In the case of `CN1CCC(COCc2nc3cc(-c4ccc(Cl)cc4Cl)ccc3n2CC2CC2)(c2ccccc2)CC1` [Example 84, 1-(Cyclopropylmethyl)-5-(2,4-dichlorophenyl)-2-(((1-methyl-4-phenylpiperidin-4-yl)methoxy)methyl)-1H-benzo[d]imidazole], the IC50 was 0.01 to 100 nM on hSERT and over 300 nM at NK-1.
In the same order, the values of `CN1CCC(COCc2nc3ccc(C4CC4)cc3n2CC2CC2)(c2ccccc2)CC1` [Example 85, 6-Cyclopropyl-1-(cyclopropylmethyl)-2-(((1-methyl-4-phenylpiperidin-4-yl)methoxy)methyl)-1H-benzo[d]imidazole] are 0.01 to 100 nM and over 300 nM.
As to `CN1CCC(COCc2nc3cc(C(F)(F)F)ccc3n2CC2CC2)(c2ccccc2)CC1` [Example 86, 1-(Cyclopropylmethyl)-2-(((1-methyl-4-phenylpiperidin-4-yl)methoxy)methyl)-5-(trifluoromethyl)-1H-benzo[d]imidazole], the half-inhibitory concentration (IC50) is 0.01 to 100 nM at hSERT and over 300 nM at NK-1.
Regarding `CN1CCC(COCc2nc3ccc(C(F)(F)F)cc3n2CC2CC2)(c2ccccc2)CC1` [Example 87, 1-(Cyclopropylmethyl)-2-(((1-methyl-4-phenylpiperidin-4-yl)methoxy)methyl)-6-(trifluoromethyl)-1H-benzo[d]imidazole], the half-inhibitory concentration (IC50) at hSERT is 0.01 to 100 nM; at NK-1, over 300 nM.
The like results for `COC(=O)C(OCC1(c2ccc(F)cc2)CCN(C)CC1)c1cc(Cl)cc2cn[nH]c12` (stereo not drawn) [Example 89, Methyl 2-(5-chloro-1H-indazol-7-yl)-2-((4-(4-fluorophenyl)-1-methylpiperidin-4-yl)methoxy)acetate trifluoroacetic acid salt] were, in that order, 0.01 to 100 nM and over 300 nM.
In the same order, the values of `CN1CCC(COC(C(=O)O)c2cc(Cl)cc3cn[nH]c23)(c2ccc(F)cc2)CC1` (stereo not drawn) [Example 90, 2-(5-Chloro-1H-indazol-7-yl)-2-((4-(4-fluorophenyl)-1-methylpiperidin-4-yl)methoxy)acetic acid trifluoroacetic acid salt] are 0.01 to 100 nM and over 300 nM.
Regarding `CN1CCC(COC(C(=O)N(C)C)c2cc(Cl)cc3cn[nH]c23)(c2ccc(F)cc2)CC1` (stereo not drawn) [Example 91, 2-(5-Chloro-1H-indazol-7-yl)-2-((4-(4-fluorophenyl)-1-methylpiperidin-4-yl)methoxy)-N,N-dimethylacetamide trifluoroacetic acid salt], the IC50 at hSERT is 0.01 to 100 nM; on NK-1, over 300 nM.
In the case of `CN1CCC(COC(CO)c2cc(Cl)cc3cn[nH]c23)(c2ccc(F)cc2)CC1` (stereo not drawn) [Example 92, 2-(5-Chloro-1H-indazol-7-yl)-2-((4-(4-fluorophenyl)-1-methylpiperidin-4-yl)methoxy)ethanol trifluoroacetic acid salt], the IC50 on hSERT and on NK-1 was 0.01 to 100 nM throughout.
Regarding `COCC(OCC1(c2ccc(F)cc2)CCN(C)CC1)c1cc(Cl)cc2cn[nH]c12` (stereo not drawn) [Example 93, 5-Chloro-7-(1-((4-(4-fluorophenyl)-1-methylpiperidin-4-yl)methoxy)-2-methoxyethyl)-1H-indazole trifluoroacetic acid salt], the IC50 at hSERT and at NK-1 was 0.01 to 100 nM in each case.
On to `CN1CCC(COC(CF)c2cc(Cl)cc3cn[nH]c23)(c2ccc(F)cc2)CC1` (stereo not drawn) [Example 94, 5-Chloro-7-(2-fluoro-1-((4-(4-fluorophenyl)-1-methylpiperidin-4-yl)methoxy)ethyl)-1H-indazole], for which the 50% inhibitory concentration (IC50) at hSERT and on NK-1 was 0.01 to 100 nM in each case.
With `CN1CCC(COC(C#N)c2cc(Cl)cc3cn[nH]c23)(c2ccc(F)cc2)CC1` (stereo not drawn) [Example 95, 2-(5-Chloro-1H-indazol-7-yl)-2-((4-(4-fluorophenyl)-1-methylpiperidin-4-yl)methoxy)acetonitrile], the IC50 at hSERT and at NK-1 was 0.01 to 100 nM throughout.
In the case of `CC(OCC1(c2ccc(F)cc2)CCN(C)CC1)c1cc(Cl)cc2[nH]c(=O)[nH]c12` (stereo not drawn) [Example 96, 6-Chloro-4-(1-((4-(4-fluorophenyl)-1-methylpiperidin-4-yl)methoxy)ethyl)-1H-benzo[d]imidazol-2(3H)-one trifluoroacetic acid salt], the values for the half-maximal inhibitory concentration (IC50) at hSERT and on NK-1 were 0.01 to 100 nM and 100 to 300 nM, respectively.
In the same order, the values of `CC(OCC1(c2ccc(F)cc2)CCN(C)CC1)c1cc(Cl)cc2[nH]c(=O)n(C)c12` (stereo not drawn) [Example 97, 5-Chloro-7-(1-((4-(4-fluorophenyl)-1-methylpiperidin-4-yl)methoxy)ethyl)-1-methyl-1H-benzo[d]imidazol-2(3H)-one trifluoroacetic acid salt] are 0.01 to 100 nM and 100 to 300 nM.
The like results for `CC(OCC1(c2ccc(F)cc2)CCN(C)CC1)c1cc(Cl)cc2c1[nH]c(=O)n2C` (stereo not drawn) [Example 98, 6-Chloro-4-(1-((4-(4-fluorophenyl)-1-methylpiperidin-4-yl)methoxy)ethyl)-1-methyl-1H-benzo[d]imidazol-2(3H)-one trifluoroacetic acid salt] were, in that order, 0.01 to 100 nM and 0.01 to 100 nM.
The like results for `C[C@@H](OCC1(c2ccc(F)cc2)CCNCC1)c1cc(Cl)cc2c(Cl)n[nH]c12` [Example 99, (R)-3,5-Dichloro-7-(1-((4-(4-fluorophenyl)piperidin-4-yl)methoxy)ethyl)-1H-indazole] were, in that order, 0.01 to 100 nM and 0.01 to 100 nM.
